# Molecular target: T1, VLA-4 (Homo sapiens, UniProt P05556+P13612)
# T1 construct: host or cells: Jurkat clone E6-1
# Test: Adhesion of Jurkat cells to immobilized VCAM-1 (domains 1-3)
# Assay type: cell-based
# Parameters: scale not given here
# Conditions: adhesion of CFSE-labeled Jurkat cells to recombinant human VCAM-1 (domains 1-3) coated plates; compounds as yielded by solid phase synthesis, purity about 40-90%
# Description: In Vitro Assay: Adhesion of Jurkat Cells to Immobilized VCAM-1 (Domains 1-3).
# Preparation of Fluorescence Labeled Jurkat Cells:
# Jurkat cells (American Type Culture Collection, Clone E6-1, ATCC TIB-152) were cultured in RPMI 1640 medium (Nikken Bio Medical Laboratory, CM1101) supplemented with 10% fetal bovine serum (Hyclone, A-1119-L), 100 U/ml penicilin (Gibco BRL, 15140-122) and 100 μg/ml streptomycin (Gibco BRL, 15140-122) in a humidified incubator at 37° C. with 5% CO2.
# Jurkat cells were incubated with phosphate balanced solution (PBS, Nissui, 05913) containing 25 μM of 5(-and-6)-carboxyfluorescein diacetate, succinimidyle ester (CFSE, Dojindo Laboratories, 345-06441) for 20 min at room temperature while gently swirling every 5 min. After centrifugation at 1000 rpm for 5 min, the cell pellet was resuspended with adhesion assay buffer at a cell density of 2×10^6 cells/ml. The adhesion assay buffer was composed of 24 mM Tris-HCl (pH 7.4), 137 mM NaCl, 27 mM KCl, 4 mM glucose, 0.1% bovine serum albumin (BSA, Sigma, A9647) and 2 mM MnCl2.
# Preparation of VCAM-1 (Extracellular Domains 1-3):
# Complementary DNA (cDNA) encoding 7-domain form of VCAM-1 (GenBank accession #M60335) was obtained using Rapid-Screen™ cDNA library panels (OriGene Technologies, Inc) at Takara Gene Analysis Center (Shiga, Japan). The primers used were 5′-CCAAGGCAGAGTACGCAAAC-3′ (sence) and 5′-TGGCAGGTATTATTAAGGAG-3′ (antisense). PCR amplification of the 3-domain VCAM-1 cDNA was perform using Pfu DNA polymerase (Stratagene) with the following sets of primers: (U-VCAMd1-3) 5′-CCATATGGTACCTGATCAATTTAAAATCGAGACCACCCCAGAA-3′; (L-VCAMd1-3) 5′-CCATATAGCAATCCTAGGTCCAGGGGAGATCTCAACAGTAAA-3′. PCR cycle was 94° C. for 45 sec, 55° C. for 45 sec, 72° C. for 2 min, repeating 15 cycles. After the purification of the PCR product, the fragment was digested with KpnI-AvrII. The digested fragment was ligated into pBluescript IISK(−) (Strategene), which was linealized by digesting with KpnI-XhoI. The ligation was followed by transformation to a Dam/Dcm methylase-free E. coli strain SCS110 (Strategene) to create the donor plasmid pH7. To direct VCAM-1 molecule into the insect cell secretory pathway, the VCAM-1 coding sequence was fused to signal peptide sequence of honeybee melittin. The resulting melittin-VCAM fusion was placed in correct orientation to the baculoviris polyhedrin promoter. Baculovirus transfer vector containing first 3-domain form VCAM-1 (pH10) was constructed by ligation of 0.9 kb fragment from AvrII/Klenow/BclI digests of pH7 into SalI/Klenow/BamHI digests of pMelBacB (Invitrogen). Recombinant baculovirus was generated by using Bac-N-Blue™ Transfection kit (Invitrogen) according to the manufacture's instruction. The recombinant virus was amplified by infection to High-Five™ insect cells for 5-6 days, and virus titer was determined by plaque assay.
# High-Five™ insect cells were pelleted in a 225 ml conical tube by centrifugation at 1000 rpm for 5 min After discarding the supernatant, the pellet was resuspended in 1.5×10^9 pfu (MOI=5) of high-titer virus solution, followed by incubation for 1.5 hours at room temperature. The cells were pelleted again and washed once in fresh Express Five™ serum free medium. The cells were pelleted again and finally, resuspended in 200 ml of fresh Express Five™ medium, transferred to a 1,000 ml shaker flask, and incubated in a shaker at 27° C., 130 rpm, for 48 hours before the culture supernatant was collected. The purification of 3-domain form of VCAM-1 from the culture supernatant was performed by one-step anion exchange chromatography. Protein concentration was determined by using Coomassie protein assay reagent (Pierce) according to the manufacture's instruction.
# Preparation of Microtiter Plates:
# Recombinant human VCAM-1 (extracellular domains 1-3) was dissolved at 0.5 μg/ml in PBS. […]
# T1 sequence (P13612 34-1032): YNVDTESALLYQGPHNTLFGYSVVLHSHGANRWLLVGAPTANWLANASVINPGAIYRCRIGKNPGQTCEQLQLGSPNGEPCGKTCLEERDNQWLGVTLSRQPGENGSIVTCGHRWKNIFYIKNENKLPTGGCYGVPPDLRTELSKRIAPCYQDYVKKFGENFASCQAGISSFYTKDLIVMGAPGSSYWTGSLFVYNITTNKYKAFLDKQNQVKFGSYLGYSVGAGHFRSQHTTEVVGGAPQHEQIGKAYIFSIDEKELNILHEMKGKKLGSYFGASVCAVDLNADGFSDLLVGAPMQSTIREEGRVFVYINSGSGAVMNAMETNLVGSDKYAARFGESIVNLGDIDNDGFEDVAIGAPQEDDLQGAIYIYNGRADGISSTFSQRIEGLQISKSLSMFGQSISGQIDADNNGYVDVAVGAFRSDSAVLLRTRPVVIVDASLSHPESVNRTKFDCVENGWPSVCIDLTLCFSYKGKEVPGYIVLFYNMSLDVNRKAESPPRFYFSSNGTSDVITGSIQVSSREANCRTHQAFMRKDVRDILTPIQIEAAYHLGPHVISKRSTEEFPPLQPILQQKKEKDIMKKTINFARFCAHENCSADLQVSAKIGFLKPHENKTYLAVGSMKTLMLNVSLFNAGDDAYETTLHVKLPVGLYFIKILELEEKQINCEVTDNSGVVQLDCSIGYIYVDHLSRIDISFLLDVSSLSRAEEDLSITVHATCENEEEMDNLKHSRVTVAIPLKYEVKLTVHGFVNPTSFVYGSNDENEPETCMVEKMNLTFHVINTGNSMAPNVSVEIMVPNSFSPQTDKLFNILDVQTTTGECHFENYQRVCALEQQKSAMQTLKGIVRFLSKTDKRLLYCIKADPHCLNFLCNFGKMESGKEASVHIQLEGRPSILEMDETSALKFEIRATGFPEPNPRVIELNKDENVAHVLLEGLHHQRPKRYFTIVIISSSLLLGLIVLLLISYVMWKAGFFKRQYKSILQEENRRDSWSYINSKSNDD
# T1 sequence (P05556 21-798): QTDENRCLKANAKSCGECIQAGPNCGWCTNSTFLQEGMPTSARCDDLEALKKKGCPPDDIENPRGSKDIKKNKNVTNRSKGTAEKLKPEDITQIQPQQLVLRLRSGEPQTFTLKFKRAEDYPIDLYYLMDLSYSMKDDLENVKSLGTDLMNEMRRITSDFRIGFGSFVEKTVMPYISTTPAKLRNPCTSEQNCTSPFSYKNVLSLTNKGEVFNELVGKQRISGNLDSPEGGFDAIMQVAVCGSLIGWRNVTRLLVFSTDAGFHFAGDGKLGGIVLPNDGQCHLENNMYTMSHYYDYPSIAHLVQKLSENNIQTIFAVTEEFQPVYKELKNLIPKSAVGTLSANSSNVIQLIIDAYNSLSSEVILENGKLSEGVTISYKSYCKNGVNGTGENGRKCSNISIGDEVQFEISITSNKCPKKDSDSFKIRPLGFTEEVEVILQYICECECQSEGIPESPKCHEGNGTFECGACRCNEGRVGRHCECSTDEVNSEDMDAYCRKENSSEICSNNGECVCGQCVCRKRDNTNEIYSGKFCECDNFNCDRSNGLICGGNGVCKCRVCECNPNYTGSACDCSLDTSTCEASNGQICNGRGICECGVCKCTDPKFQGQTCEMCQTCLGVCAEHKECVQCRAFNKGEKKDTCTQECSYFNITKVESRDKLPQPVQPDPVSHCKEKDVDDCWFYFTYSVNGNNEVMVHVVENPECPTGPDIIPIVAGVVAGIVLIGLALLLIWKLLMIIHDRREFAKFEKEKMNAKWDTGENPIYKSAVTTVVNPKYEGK
row,Compound,IC50
1,Cc1ccc(C(=O)N2CCCC(C(=O)N[C@@H](Cc3ccc(-c4ccc(Cl)cc4Cl)cc3)C(=O)O)C2)cc1 (some centres unmarked) [Example 1.42],B-C
2,O=C(N[C@@H](Cc1ccc(-c2ccc(Cl)cc2Cl)cc1)C(=O)O)C1CCCN(C(=O)c2ccc3c(c2)OCO3)C1 (some centres unmarked) [Example 1.43],C-D
3,O=C(N[C@@H](Cc1ccc(-c2ccc(Cl)cc2Cl)cc1)C(=O)O)C1CCCN(C(=O)C2CCCCC2)C1 (some centres unmarked) [Example 1.44],C-D
4,Cc1cc(Cl)c(CC(=O)N2CCCC(C(=O)N[C@@H](Cc3ccc(-c4ccc(Cl)cc4Cl)cc3)C(=O)O)C2)c(Cl)c1 (some centres unmarked) [Example 1.45],C-D
5,Cc1cc(C)c(OC(=O)N2CCCC(C(=O)N[C@@H](Cc3ccc(-c4ccc(Cl)cc4Cl)cc3)C(=O)O)C2)c(C)c1 (some centres unmarked) [Example 1.47],C-D
6,O=C(N[C@@H](Cc1ccc(-c2cc(Cl)ccc2Cl)cc1)C(=O)O)C1CCCN(C(=O)Cc2ccccc2)C1 (some centres unmarked) [Example 1.49],C-D
7,Cc1ccc(C(=O)N2CCCC(C(=O)N[C@@H](Cc3ccc(-c4cc(Cl)ccc4Cl)cc3)C(=O)O)C2)cc1 (some centres unmarked) [Example 1.51],C-D
8,O=C(N[C@@H](Cc1ccc(-c2cc(Cl)ccc2Cl)cc1)C(=O)O)C1CCCN(C(=O)c2ccc3c(c2)OCO3)C1 (some centres unmarked) [Example 1.52],C-D
9,O=C(N[C@@H](Cc1ccc(-c2cc(Cl)ccc2Cl)cc1)C(=O)O)C1CCCN(C(=O)C2CCCCC2)C1 (some centres unmarked) [Example 1.53],C-D
10,CC1(C)C2CCC1(CS(=O)(=O)N1CCCC(C(=O)N[C@@H](Cc3ccc(-c4ccccc4)cc3)C(=O)O)C1)C(=O)C2 (some centres unmarked) [Example 1.55],C-D
11,COC(=O)c1ccccc1S(=O)(=O)N1CCCC(C(=O)N[C@@H](Cc2ccc(-c3ccccc3)cc2)C(=O)O)C1 (some centres unmarked) [Example 1.57],C-D
12,O=C(N[C@@H](Cc1ccc(-c2ccccc2)cc1)C(=O)O)C1CCCN(S(=O)(=O)c2ccc3ccccc3c2)C1 (some centres unmarked) [Example 1.58],C-D
13,O=C(N[C@@H](Cc1ccc(-c2ccccc2)cc1)C(=O)O)C1CCCN(S(=O)(=O)c2c(Cl)cccc2Cl)C1 (some centres unmarked) [Example 1.59],C-D
14,COc1ccc(S(=O)(=O)N2CCCC(C(=O)N[C@@H](Cc3ccc(-c4ccccc4)cc3)C(=O)O)C2)cc1OC (some centres unmarked) [Example 1.60],C-D
15,O=C(N[C@@H](Cc1ccc(-c2ccccc2)cc1)C(=O)O)C1CCCN(S(=O)(=O)c2ccccc2C(F)(F)F)C1 (some centres unmarked) [Example 1.61],C-D
16,COc1ccc(Cl)cc1S(=O)(=O)N1CCCC(C(=O)N[C@@H](Cc2ccc(-c3ccccc3)cc2)C(=O)O)C1 (some centres unmarked) [Example 1.62],C-D
17,O=C(N[C@@H](Cc1ccc(-c2ccccc2)cc1)C(=O)O)C1CCCN(S(=O)(=O)Cc2ccccc2)C1 (some centres unmarked) [Example 1.63],C-D
18,O=C(N[C@@H](Cc1ccc(-c2ccccc2)cc1)C(=O)O)C1CCCN(S(=O)(=O)c2cc(Cl)cc(Cl)c2)C1 (some centres unmarked) [Example 1.64],C-D
19,Cc1ccc(-c2ccc(C[C@H](NC(=O)C3CCCN(S(=O)(=O)CC45CCC(CC4=O)C5(C)C)C3)C(=O)O)cc2)cc1 (some centres unmarked) [Example 1.65],C-D

row,Compound,IC50
1,Cc1ccc(-c2ccc(C[C@H](NC(=O)C3CCCN(S(=O)(=O)c4ccc(C)cc4)C3)C(=O)O)cc2)cc1 (some centres unmarked) [Example 1.66],C-D
2,COC(=O)c1ccccc1S(=O)(=O)N1CCCC(C(=O)N[C@@H](Cc2ccc(-c3ccc(C)cc3)cc2)C(=O)O)C1 (some centres unmarked) [Example 1.67],C-D
3,Cc1ccc(-c2ccc(C[C@H](NC(=O)C3CCCN(S(=O)(=O)c4ccc5ccccc5c4)C3)C(=O)O)cc2)cc1 (some centres unmarked) [Example 1.68],C-D
4,Cc1ccc(-c2ccc(C[C@H](NC(=O)C3CCCN(S(=O)(=O)c4c(Cl)cccc4Cl)C3)C(=O)O)cc2)cc1 (some centres unmarked) [Example 1.69],C-D
5,COc1ccc(S(=O)(=O)N2CCCC(C(=O)N[C@@H](Cc3ccc(-c4ccc(C)cc4)cc3)C(=O)O)C2)cc1OC (some centres unmarked) [Example 1.70],C-D
6,Cc1ccc(-c2ccc(C[C@H](NC(=O)C3CCCN(S(=O)(=O)c4ccccc4C(F)(F)F)C3)C(=O)O)cc2)cc1 (some centres unmarked) [Example 1.71],C-D
7,COc1ccc(Cl)cc1S(=O)(=O)N1CCCC(C(=O)N[C@@H](Cc2ccc(-c3ccc(C)cc3)cc2)C(=O)O)C1 (some centres unmarked) [Example 1.72],C-D
8,Cc1ccc(-c2ccc(C[C@H](NC(=O)C3CCCN(S(=O)(=O)Cc4ccccc4)C3)C(=O)O)cc2)cc1 (some centres unmarked) [Example 1.73],C-D
9,Cc1ccc(-c2ccc(C[C@H](NC(=O)C3CCCN(S(=O)(=O)c4cc(Cl)cc(Cl)c4)C3)C(=O)O)cc2)cc1 (some centres unmarked) [Example 1.74],C-D
10,COc1ccc(-c2ccc(C[C@H](NC(=O)C3CCCN(S(=O)(=O)CC45CCC(CC4=O)C5(C)C)C3)C(=O)O)cc2)cc1 (some centres unmarked) [Example 1.75],C-D
11,COc1ccc(-c2ccc(C[C@H](NC(=O)C3CCCN(S(=O)(=O)c4ccc(C)cc4)C3)C(=O)O)cc2)cc1 (some centres unmarked) [Example 1.76],C-D
12,COC(=O)c1ccccc1S(=O)(=O)N1CCCC(C(=O)N[C@@H](Cc2ccc(-c3ccc(OC)cc3)cc2)C(=O)O)C1 (some centres unmarked) [Example 1.77],C-D
13,COc1ccc(-c2ccc(C[C@H](NC(=O)C3CCCN(S(=O)(=O)c4ccc5ccccc5c4)C3)C(=O)O)cc2)cc1 (some centres unmarked) [Example 1.78],C-D
14,COc1ccc(-c2ccc(C[C@H](NC(=O)C3CCCN(S(=O)(=O)c4c(Cl)cccc4Cl)C3)C(=O)O)cc2)cc1 (some centres unmarked) [Example 1.79],C-D
15,COc1ccc(-c2ccc(C[C@H](NC(=O)C3CCCN(S(=O)(=O)c4ccccc4C(F)(F)F)C3)C(=O)O)cc2)cc1 (some centres unmarked) [Example 1.80],C-D
16,COc1ccc(-c2ccc(C[C@H](NC(=O)C3CCCN(S(=O)(=O)c4cc(Cl)ccc4OC)C3)C(=O)O)cc2)cc1 (some centres unmarked) [Example 1.81],C-D
17,COc1ccc(-c2ccc(C[C@H](NC(=O)C3CCCN(S(=O)(=O)Cc4ccccc4)C3)C(=O)O)cc2)cc1 (some centres unmarked) [Example 1.82],C-D
18,COc1ccc(-c2ccc(C[C@H](NC(=O)C3CCCN(S(=O)(=O)c4cc(Cl)cc(Cl)c4)C3)C(=O)O)cc2)cc1 (some centres unmarked) [Example 1.83],C-D
19,Cc1ccccc1-c1ccc(C[C@H](NC(=O)C2CCCN(S(=O)(=O)CC34CCC(CC3=O)C4(C)C)C2)C(=O)O)cc1 (some centres unmarked) [Example 1.84],C-D

# Same assay, conditions: adhesion of CFSE-labeled Jurkat cells to recombinant human VCAM-1 (domains 1-3) coated plates; compounds as yielded by solid phase synthesis, purity about 40-90%; read-out: IC50
row,Compound,IC50
1,COc1ccccc1C(=O)N1CCCC(C(=O)N[C@@H](Cc2ccc(-c3ccc(Cl)cc3Cl)cc2)C(=O)O)C1 (some centres unmarked) [Example 1.46],2000 to 10000 nM
2,O=C(N[C@@H](Cc1ccc(-c2ccc(Cl)cc2Cl)cc1)C(=O)O)C1CCCN(C(=O)OC2CCCC2)C1 (some centres unmarked) [Example 1.48],2000 to 10000 nM
3,O=C(N[C@@H](Cc1ccc(-c2cc(Cl)ccc2Cl)cc1)C(=O)O)C1CCCN(C(=O)c2cccc(Cl)c2)C1 (some centres unmarked) [Example 1.50],2000 to 10000 nM
4,O=C(N[C@@H](Cc1ccc(-c2cc(Cl)ccc2Cl)cc1)C(=O)O)C1CCCN(C(=O)c2ccccc2Cl)C1 (some centres unmarked) [Example 1.54],2000 to 10000 nM
5,Cc1ccc(S(=O)(=O)N2CCCC(C(=O)N[C@@H](Cc3ccc(-c4ccccc4)cc3)C(=O)O)C2)cc1 (some centres unmarked) [Example 1.56],500 to 2000 nM
6,Cc1ccc(S(=O)(=O)N2CCCC(C(=O)N[C@@H](Cc3ccc(-c4ccccc4C)cc3)C(=O)O)C2)cc1 (some centres unmarked) [Example 1.85],500 to 2000 nM

# Source: patent publication US6794386B2, “β-amino acid compounds as integrin antagonists” (Bayer Aktiengesellschaft, priority 2000, dated 2004)
